Laboratory results from PMC7206119, “RIP1 inhibition blocks inflammatory diseases but not tumor growth or metastases” (Cell Death and Differentiation, 2019).

Key:
Test in all cases: biochemical
Design in all cases: DiscoverX kinase panel, active-site competition binding (KINOMEscan type), percent of control at one concentration
Conditions in all cases: competition binding, percent of control
CDK4 = CDK4 (Homo sapiens, UniProt P11802)
CDKL3 = CDKL3 (Homo sapiens, UniProt Q8IVW4)
DAPK2 = DAPK2 (Homo sapiens, UniProt Q9UIK4)
DCAMKL2 = target: T1, DCAMKL2 (Homo sapiens, UniProt Q8N568)
T1 construct: gene DCLK2

DDR2 = DDR2 (Homo sapiens, UniProt Q16832)
FGR = FGR (Homo sapiens, UniProt P09769)
FLT3(K663Q) = FLT3(K663Q) (Homo sapiens, UniProt P36888, K663Q)
GRK7 = GRK7 (Homo sapiens, UniProt Q8WTQ7)
LKB1 = target: T2, LKB1 (Homo sapiens, UniProt Q15831)
T2 construct: gene STK11

MERTK = MERTK (Homo sapiens, UniProt Q12866)
MET = MET (Homo sapiens, UniProt P08581)
NEK10 = NEK10 (Homo sapiens, UniProt Q6ZWH5)
NEK6 = NEK6 (Homo sapiens, UniProt Q9HC98)
NIK = target: T3, NIK (Homo sapiens, UniProt Q99558)
T3 construct: gene MAP3K14
T3 sequence (Q99558 whole entry): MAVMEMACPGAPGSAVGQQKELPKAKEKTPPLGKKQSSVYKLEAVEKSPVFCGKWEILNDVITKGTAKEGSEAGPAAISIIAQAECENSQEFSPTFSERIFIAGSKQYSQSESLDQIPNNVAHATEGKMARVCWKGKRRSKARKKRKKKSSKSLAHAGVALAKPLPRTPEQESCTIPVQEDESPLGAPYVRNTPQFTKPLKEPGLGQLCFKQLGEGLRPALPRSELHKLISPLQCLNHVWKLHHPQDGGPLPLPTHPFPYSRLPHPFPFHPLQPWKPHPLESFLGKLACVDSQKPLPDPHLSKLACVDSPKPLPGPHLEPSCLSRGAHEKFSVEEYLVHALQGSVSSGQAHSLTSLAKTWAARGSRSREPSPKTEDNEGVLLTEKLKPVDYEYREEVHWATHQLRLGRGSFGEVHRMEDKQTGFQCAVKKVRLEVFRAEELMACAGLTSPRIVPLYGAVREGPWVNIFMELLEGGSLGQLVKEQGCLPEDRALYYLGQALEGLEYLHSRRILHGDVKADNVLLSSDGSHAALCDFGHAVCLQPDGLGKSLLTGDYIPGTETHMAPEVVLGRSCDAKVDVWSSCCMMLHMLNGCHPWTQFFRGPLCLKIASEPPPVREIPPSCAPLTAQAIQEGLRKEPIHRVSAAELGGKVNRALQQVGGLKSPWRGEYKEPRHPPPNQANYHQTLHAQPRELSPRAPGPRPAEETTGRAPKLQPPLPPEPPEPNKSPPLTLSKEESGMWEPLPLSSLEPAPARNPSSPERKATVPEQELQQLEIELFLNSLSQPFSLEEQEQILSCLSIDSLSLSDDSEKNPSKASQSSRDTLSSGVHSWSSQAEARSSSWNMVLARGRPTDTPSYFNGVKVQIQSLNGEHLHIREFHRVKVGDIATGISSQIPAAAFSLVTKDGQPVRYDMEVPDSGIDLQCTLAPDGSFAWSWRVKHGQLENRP

PCTK1 = target: T4, PCTK1 (Homo sapiens, UniProt Q00536)
T4 construct: gene CDK16

PLK3 = PLK3 (Homo sapiens, UniProt Q9H4B4)
PLK3, sequence (Q9H4B4 whole entry): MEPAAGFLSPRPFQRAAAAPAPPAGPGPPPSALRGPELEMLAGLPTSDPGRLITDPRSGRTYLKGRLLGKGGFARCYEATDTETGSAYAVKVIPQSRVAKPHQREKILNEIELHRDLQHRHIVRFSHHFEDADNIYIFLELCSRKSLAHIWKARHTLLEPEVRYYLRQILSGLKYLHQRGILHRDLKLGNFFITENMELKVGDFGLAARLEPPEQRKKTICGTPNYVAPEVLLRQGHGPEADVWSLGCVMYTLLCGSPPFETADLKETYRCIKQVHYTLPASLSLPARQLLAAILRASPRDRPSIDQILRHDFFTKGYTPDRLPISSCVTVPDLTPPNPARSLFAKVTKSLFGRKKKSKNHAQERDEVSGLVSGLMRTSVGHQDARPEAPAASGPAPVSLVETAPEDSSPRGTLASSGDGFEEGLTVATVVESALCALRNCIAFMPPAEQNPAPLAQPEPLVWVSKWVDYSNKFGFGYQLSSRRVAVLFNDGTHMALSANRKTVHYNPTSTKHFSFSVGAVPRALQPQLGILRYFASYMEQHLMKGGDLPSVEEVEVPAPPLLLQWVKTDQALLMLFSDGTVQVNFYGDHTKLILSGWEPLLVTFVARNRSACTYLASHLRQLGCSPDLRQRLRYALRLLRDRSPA

QSK = target: T5, QSK (Homo sapiens, UniProt Q9Y2K2)
T5 construct: gene SIK3
T5 sequence (Q9Y2K2 whole entry): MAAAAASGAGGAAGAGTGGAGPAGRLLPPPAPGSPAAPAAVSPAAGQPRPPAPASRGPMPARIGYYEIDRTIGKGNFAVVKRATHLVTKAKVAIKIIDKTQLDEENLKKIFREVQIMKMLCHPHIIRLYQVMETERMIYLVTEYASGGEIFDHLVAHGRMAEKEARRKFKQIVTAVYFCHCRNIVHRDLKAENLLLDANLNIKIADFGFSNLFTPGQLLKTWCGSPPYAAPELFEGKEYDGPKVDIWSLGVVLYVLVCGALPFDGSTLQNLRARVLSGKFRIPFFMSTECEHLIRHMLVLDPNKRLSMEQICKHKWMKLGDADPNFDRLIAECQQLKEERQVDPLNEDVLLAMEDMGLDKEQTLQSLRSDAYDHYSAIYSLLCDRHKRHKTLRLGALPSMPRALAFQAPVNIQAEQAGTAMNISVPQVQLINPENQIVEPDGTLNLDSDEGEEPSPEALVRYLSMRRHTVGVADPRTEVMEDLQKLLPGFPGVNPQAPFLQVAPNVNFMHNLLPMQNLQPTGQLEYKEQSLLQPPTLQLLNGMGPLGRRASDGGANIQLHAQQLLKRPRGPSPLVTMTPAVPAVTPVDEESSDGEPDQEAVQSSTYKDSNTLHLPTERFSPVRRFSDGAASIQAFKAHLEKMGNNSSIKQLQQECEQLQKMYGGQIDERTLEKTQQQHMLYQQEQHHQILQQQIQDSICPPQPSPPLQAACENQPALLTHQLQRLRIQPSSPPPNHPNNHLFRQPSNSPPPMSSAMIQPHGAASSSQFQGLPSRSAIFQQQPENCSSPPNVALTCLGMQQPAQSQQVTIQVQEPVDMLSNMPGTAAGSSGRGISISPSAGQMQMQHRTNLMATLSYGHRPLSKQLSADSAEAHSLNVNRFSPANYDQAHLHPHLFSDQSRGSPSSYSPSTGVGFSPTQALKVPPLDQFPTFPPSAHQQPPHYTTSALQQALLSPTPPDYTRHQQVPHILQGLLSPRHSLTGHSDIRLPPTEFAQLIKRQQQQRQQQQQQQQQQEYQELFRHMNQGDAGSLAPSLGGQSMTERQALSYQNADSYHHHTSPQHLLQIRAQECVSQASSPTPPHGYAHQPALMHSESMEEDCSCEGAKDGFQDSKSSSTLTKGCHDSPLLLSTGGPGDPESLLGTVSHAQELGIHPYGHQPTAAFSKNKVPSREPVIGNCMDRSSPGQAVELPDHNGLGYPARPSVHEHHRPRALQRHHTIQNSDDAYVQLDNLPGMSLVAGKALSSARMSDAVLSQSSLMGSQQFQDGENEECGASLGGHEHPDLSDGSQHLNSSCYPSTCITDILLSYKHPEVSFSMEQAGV

SRC = SRC (Homo sapiens, UniProt P12931)
SRC, sequence (P12931 whole entry): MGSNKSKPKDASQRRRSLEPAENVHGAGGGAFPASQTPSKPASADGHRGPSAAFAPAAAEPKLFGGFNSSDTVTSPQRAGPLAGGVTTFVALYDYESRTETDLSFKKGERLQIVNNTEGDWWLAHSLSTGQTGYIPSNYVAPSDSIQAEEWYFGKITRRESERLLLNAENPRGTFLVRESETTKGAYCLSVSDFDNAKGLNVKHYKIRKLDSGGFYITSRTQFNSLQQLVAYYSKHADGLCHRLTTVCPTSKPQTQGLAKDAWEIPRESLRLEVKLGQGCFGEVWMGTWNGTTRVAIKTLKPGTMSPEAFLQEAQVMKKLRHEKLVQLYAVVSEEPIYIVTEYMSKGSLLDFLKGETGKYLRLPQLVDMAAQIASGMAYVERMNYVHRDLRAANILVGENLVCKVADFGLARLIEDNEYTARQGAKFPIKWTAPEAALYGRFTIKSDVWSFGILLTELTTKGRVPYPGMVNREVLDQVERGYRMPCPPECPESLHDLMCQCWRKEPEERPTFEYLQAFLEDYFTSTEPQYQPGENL

SRPK1 = SRPK1 (Homo sapiens, UniProt Q96SB4)
SRPK1, sequence (Q96SB4 whole entry): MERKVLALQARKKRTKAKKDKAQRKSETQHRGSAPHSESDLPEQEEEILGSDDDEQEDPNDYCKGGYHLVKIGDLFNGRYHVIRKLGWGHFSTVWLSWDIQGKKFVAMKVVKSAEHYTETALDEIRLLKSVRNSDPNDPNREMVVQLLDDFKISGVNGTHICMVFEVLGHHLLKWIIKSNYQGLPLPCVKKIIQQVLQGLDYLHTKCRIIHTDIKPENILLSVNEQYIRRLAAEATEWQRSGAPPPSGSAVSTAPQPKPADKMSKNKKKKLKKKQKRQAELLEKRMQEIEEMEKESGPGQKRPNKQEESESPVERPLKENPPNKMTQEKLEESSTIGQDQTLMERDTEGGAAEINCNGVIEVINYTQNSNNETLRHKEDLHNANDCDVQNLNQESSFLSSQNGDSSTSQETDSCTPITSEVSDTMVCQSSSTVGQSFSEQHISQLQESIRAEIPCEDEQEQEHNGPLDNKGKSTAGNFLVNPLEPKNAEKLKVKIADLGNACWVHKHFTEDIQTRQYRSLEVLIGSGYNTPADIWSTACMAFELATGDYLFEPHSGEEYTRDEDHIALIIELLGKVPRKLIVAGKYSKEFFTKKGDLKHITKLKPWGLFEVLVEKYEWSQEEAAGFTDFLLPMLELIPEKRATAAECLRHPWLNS

ULK2 = ULK2 (Homo sapiens, UniProt Q8IYT8)
VRK2 = VRK2 (Homo sapiens, UniProt Q86Y07)
WNK2 = WNK2 (Homo sapiens, UniProt Q9Y3S1)

CDK4, sequence (P11802 whole entry): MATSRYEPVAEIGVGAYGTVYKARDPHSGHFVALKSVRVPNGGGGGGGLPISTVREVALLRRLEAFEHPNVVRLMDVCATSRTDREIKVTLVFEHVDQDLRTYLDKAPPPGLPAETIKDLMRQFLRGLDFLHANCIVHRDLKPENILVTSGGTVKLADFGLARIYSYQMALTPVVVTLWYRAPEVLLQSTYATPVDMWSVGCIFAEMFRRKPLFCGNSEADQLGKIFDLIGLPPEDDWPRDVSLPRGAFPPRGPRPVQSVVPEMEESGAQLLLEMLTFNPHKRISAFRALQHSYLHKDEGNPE
CDKL3, sequence (Q8IVW4 whole entry): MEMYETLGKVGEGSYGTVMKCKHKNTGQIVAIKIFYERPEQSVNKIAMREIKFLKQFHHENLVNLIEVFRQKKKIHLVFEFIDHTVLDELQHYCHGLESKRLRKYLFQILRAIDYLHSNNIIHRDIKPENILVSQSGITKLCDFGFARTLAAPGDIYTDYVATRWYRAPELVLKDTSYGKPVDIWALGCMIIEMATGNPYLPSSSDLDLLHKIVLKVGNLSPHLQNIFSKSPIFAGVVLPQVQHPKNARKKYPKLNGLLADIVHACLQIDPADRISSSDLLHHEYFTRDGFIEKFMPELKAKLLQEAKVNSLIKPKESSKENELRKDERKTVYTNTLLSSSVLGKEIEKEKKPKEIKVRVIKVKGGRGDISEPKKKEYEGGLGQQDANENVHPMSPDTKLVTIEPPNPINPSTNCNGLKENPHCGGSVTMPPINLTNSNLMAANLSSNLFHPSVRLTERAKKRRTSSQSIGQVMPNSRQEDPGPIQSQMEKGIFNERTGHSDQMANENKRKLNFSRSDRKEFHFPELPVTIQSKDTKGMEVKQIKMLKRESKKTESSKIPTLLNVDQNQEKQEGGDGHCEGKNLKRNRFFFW

COc1cc2c(cn1)N(C)C(=O)[C@@H](NC(=O)c1nc3n(n1)[C@H](c1ccccc1)CC3)CC2 [GNE684, (S)-N-((S)-7-methoxy-1-methyl-2-oxo-2,3,4,5-tetrahydro-1H-pyrido[3,4-b]azepin-3-yl)-5-phenyl-6,7-dihydro-5H-pyrrolo[1,2-b][1,2,4]triazole-2-carboxamide]
remaining binding at 10 µM (CDK4): 100% | remaining binding at 10 µM (CDKL3): 69% | remaining binding at 10 µM (DAPK2): 74% | remaining binding at 10 µM (DCAMKL2): 95% | remaining binding at 10 µM (DDR2): 100% | remaining binding at 10 µM (FGR): 94% | remaining binding at 10 µM (FLT3(K663Q)): 100% | remaining binding at 10 µM (GRK7): 100% | remaining binding at 10 µM (LKB1): 100% | remaining binding at 10 µM (MERTK): 90% | remaining binding at 10 µM (MET): 73% | remaining binding at 10 µM (NEK10): 100% | remaining binding at 10 µM (NEK6): 85% | remaining binding at 10 µM (NIK): 100% | remaining binding at 10 µM (PCTK1): 82% | remaining binding at 10 µM (PLK3): 89% | remaining binding at 10 µM (QSK): 97% | remaining binding at 10 µM (SRC): 72% | remaining binding at 10 µM (SRPK1): 93% | remaining binding at 10 µM (ULK2): 100% | remaining binding at 10 µM (VRK2): 85% | remaining binding at 10 µM (WNK2): 83%
